# pKi: −log10 of the molar value. Several values for one entry are separate records, joined by “and”; a condition that tells them apart may be missing. Identical values can stand only once.
# Target: Hrh3 protein (Rattus norvegicus, UniProt Q5PPG3)
# Sequence (Q5PPG3 whole entry): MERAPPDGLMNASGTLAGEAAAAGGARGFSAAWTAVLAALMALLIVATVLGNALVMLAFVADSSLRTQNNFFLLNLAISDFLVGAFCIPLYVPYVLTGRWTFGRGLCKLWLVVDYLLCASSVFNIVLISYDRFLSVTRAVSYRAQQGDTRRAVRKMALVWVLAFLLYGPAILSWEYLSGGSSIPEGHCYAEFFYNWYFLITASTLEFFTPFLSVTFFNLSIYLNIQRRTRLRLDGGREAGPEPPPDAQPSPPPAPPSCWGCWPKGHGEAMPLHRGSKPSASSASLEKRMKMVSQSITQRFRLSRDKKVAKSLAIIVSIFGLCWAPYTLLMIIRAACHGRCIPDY
row,Structure (SMILES),pKi
1,C[C@@H](N)Cc1c[nH]cn1,8.40 and 9.30
2,S=C(NC1CCCCC1)N1CCC(c2cnc[nH]2)CC1,8.40 and 8.70
3,CNC(=S)NCCCCc1cnc[nH]1 [1-[4-(1H-imidazol-5-yl)butyl]-3-methylthiourea],7.17 and 7.15 and 6.74
4,N=C(N)SCCc1cnc[nH]1 [2-(3H-imidazol-4-yl)ethylsulfanylmethanimidamide],9.82 and 9.00 and 10.00
5,Cc1[nH]cnc1CSCCNC(=N)NCCCc1c[nH]cn1 [2-[3-(1H-imidazol-5-yl)propyl]-1-(2-{[(5-methyl-1H-imidazol-4-yl)methyl]sulfanyl}ethyl)guanidine],7.12 and 7.19 and 7.35
6,C[C@H](N)Cc1c[nH]cn1 [CAS_75614-93-6],7.11 and 6.33 and 7.30
7,CCCCCCC(=O)N1CCC(c2cnc[nH]2)CC1 [Carboperamide],8.21 and 7.70
